Measurements from patent US20050119324A1, “Methods of treating atherosclerosis using NF-kB inhibitors” (Wyeth, priority 2003, published 2005).

What was measured:
[1] = test system: apolipoprotein E-deficient C57/B1J (apo E KO) mice; assay: Aortic atherosclerosis quantification (Oil Red O, en face, aortic arch) in ovariectomized apoE KO mice on a high fat diet; type: in vivo; details: atherogenic diet 6 weeks, oral dosing in feed, EE 12 μg/kg/d, Examples 3 or 5 at 10 or 25 mg/kg/d, N=12
Experimental: All animal procedures were performed under strict compliance to IACUC guidelines. Four to six-week old female apolipoprotein E-deficient C57/B1J (apo E KO) mice were ovariectomized by the vendor (Taconic) and delivered to Wyeth within 2 days of surgery. The animals were housed in shoe-box cages and were allowed ad lib food and water. After 3 days acclimation, the animals were randomized by weight into 8 groups (N=12 mice per group). The animals were dosed in the feed with the indicated compounds during the entire course of the study. Dosing at the indicated levels was achieved by blending the compounds with a sucrose vehicle (30 g per 2 kg feed) prior to mixing into the feed. Ethinyl estradiol was used as a positive reference compound and was dosed at 12 μg/kg/d. […] The quantity of compound added to the feed was based on the food consumption rate and the body weights of the animals, which was determined every week. […]
Aortic Atherosclerosis Quantification-The mice were euthanized by anesthesia overdose and the vascular tree was perfused first with 2 ml phosphate buffered saline (pH 7.4), then with 2 ml formalin. For quantification of aortic lesions, aortas were carefully isolated and placed in formalin fixative for 48-72 hours before handling. […] The lesions were quantified en face after staining along the aortic arch using the Image-Pro Plus, Media Cybernetics software. […]

[2] = Lipoprotein determinations (total cholesterol, VLDL, HDL by FPLC) in ovariectomized apoE KO mice on a high fat diet; type: in vivo; details: atherogenic diet 6 weeks, oral dosing in feed
Experimental: All animal procedures were performed under strict compliance to IACUC guidelines. Four to six-week old female apolipoprotein E-deficient C57/B1J (apo E KO) mice were ovariectomized by the vendor (Taconic) and delivered to Wyeth within 2 days of surgery. The animals were housed in shoe-box cages and were allowed ad lib food and water. After 3 days acclimation, the animals were randomized by weight into 8 groups (N=12 mice per group). The animals were dosed in the feed with the indicated compounds during the entire course of the study. Dosing at the indicated levels was achieved by blending the compounds with a sucrose vehicle (30 g per 2 kg feed) prior to mixing into the feed. Ethinyl estradiol was used as a positive reference compound and was dosed at 12 μg/kg/d. Other groups of animals were dosed with the compounds of Example 3 or Example 5 at either 10 or 25 mg/kg/d. Control animals received vehicle (sucrose) alone in the feed. The quantity of compound added to the feed was based on the food consumption rate and the body weights of the animals, which was determined every week. The feeders employed prevented any spillage, so that the food consumption rate was accurate. The animals were fed a Casein-based rodent chow meal (Purina #5K96M) for the first week of the study. The animals were then challenged with a casein-based high fat (HF) diet for week 2 to week 7 of the study. The HF diet (#591-A) was prepared by Purina and contained 1.5% cholesterol, 20% fat as cocoa butter and contained no cholic acid. At the end of the study period, the animals were euthanized and plasma samples obtained. The aortas were perfused via the left ventricle first with buffered saline and then with neutral buffered 10% formalin solution.
Lipoprotein Determinations—Total cholesterol and triglycerides were determined using enzymatic methods with commercially available kits from Boehringer Mannheim and Wako Biochemicals, respectively, and analyzed with the Boehringer Mannheim Hitachii 911 Analyzer. Separation and quantitation of plasma lipoproteins were performed using FPLC size fractionation. Briefly, 50-100 μl serum was filtered and injected into Superose 12 and Superose 6 columns connected in series and eluted at a constant flow rate using 0.15 M NaCl. Areas of each curve representing VLDL, LDL and HDL were integrated using Waters Millennium™ software, and each lipoprotein fraction was quantified by multiplying the Total Cholesterol value by the relative percent area of each respective chromatogram peak.

| melting point | SMILES | extent of aortic fatty streak involvement [1] | VLDL-C (FIG. 2) [2] | serum HDL-C (FIG. 2) [2] | serum total cholesterol (FIG. 2) [2] |
| --- | --- | --- | --- | --- | --- |
| – | COc1ccccc1[C@H](c1cccc2ccccc12)[C@@](C)(C#N)C(=O)N1CCC(c2cccc(C(F)(F)F)c2)CC1 [Example 5, (S,S)-3-(2-methoxyphenyl)-2-methyl-3-(1-naphthyl)-2-({4-[3-(trifluoromethyl)phenyl]piperidin-1-yl}carbonyl)propanenitrile] | significant decrease | increase | significantly lower | no effect |
| 186 to 188 °C | COc1cc(OC)cc(N2CCN(C(=O)[C@](C)(C#N)[C@H](c3ccccc3OC)c3cccc4ccccc34)CC2)c1 [Example 4, (S)-3-[4-(3,5-dimethoxyphenyl)piperazin-1-yl]-2-[(S)-(2-methoxyphenyl)(1-naphthyl)methyl]-2-methyl-3-oxopropanenitrile] | – | – | – | – |
| 188 °C | CC1c2cc(F)ccc2-c2ccccc2N1S(=O)(=O)c1ccc(O)cc1 (stereo not shown) [Example 3, 4-[(8-Fluoro-6-methylphenanthridin-5(6H)-yl)sulfonyl]phenol] | significant decrease | increase | significantly lower | no effect |
